Data published in patent publication US20150182492A1, “Ulcer Treatment” (United Arab Emirates University, priority 2013, published 2015).

Tests used:
[1] = tested on: histamine stimulated gastric acid secretion from rat stomach; assay: Gastric acid secretion measured in vivo (histamine stimulated); set-up: species or system rat (male Wistar); details: for Acid output, mean: histamine 2 mg/kg bolus; for Acid output compared to the histamine control (in words): treated orally, then challenged with histamine, FIGS. 1-3
Method: (§1) Male Wistar rats (weighing 200-225 g) were fasted for 24 hours in wire mesh cages to avoid coprophagy. The rats were obtained from the animal facilities of the Faculty of Medicine and Health Sciences of the United Arab Emirates (UAE) University. Materials
Groups of six rats were used for the experiment. Rats were initially anesthetized with urethane (1.5 g/kg) intraperitoneally. Following general anesthesia, a laparotomy was immediately performed followed by the insertion of a polyethylene tube at the pyloric end of the stomach. This tube was used to collect exudates from the stomach. An orogastric tube was inserted in the stomach via the esophagus. This tube was used to perfuse the stomach with saline (pH 7) at a constant rate of 7 mL/min at 37° C. Following perfusion, effluent samples were collected and titrated against 0.01 M NaOH every 15 minutes for acid secretion. After basal acid output for 1 hour, either saline, quercetin (50 mg/kg,), or diallyl sulfide (50 mg/kg), or allyl disulfide (10 mg/kg) at neutral pH was given orally and 30 minutes later, histamine (2 mg/kg) was administered as a bolus injection. Acid output was monitored continuously for 2 hours thereafter. The acid output was calculated and expressed as μmol (15 min^−1).

[2] = tested on: gastric ulcer formation in rat stomachs; assay: Antiulcer activity, acidified ethanol-induced gastric ulcer; type: in vivo, rat (male Wistar); set-up: key to Ulcer Index, Mean: total length of hemorrhagic lesions (mm) = ulcer index; details: for Ulcer index compared to the control (in words): acidified ethanol model, rats; for Ulcer Index, Mean: 30 min before acidified ethanol, control 95.00
Method: as §1
Rats were divided into groups of six to seven animals for each experiment. Each group received either neutral pH physiologic saline (1 mL) or water extract of either quercetin, diallyl sulfide or allyl disulfide (1 mg/kg, 10 mg/kg, 50 mg/kg or 100 mg/kg; six rats for each dose) by gastric gavage. Two additional comparison groups received either the proton pump inhibitor Lansoprazole (10 mg/kg) or the H2-receptor antagonist Ranitidine (20 mg/kg). After 30 minutes of the treatment, 1 mL of acidified ethanol (60% ethanol with 150 mM HCl), an ulcerogenic agent, was administered orally to the animals. The animals were sacrificed 1 hour later by increasing the dose of the anaesthesia. The abdomen was incised, and the stomachs removed, cut open along the greater curvature, and rinsed with saline to remove any adherent particles and mucus. The open stomach was spread on a sheet of cork so as to have a clear view of gastric lesions in the gastric mucosa. The total lengths of hemorrhagic lesions, which were approximately 1 mm in length and formed in the glandular portion of the gastric mucosa, were taken as ulcer index. An observer who was unaware of the drug treatments confirmed the ulcer index. The percentage reduction of the ulcer index in the drug-treated groups was calculated from the saline treated groups. The use of 60% ethanol in 150 mM HCl to produce an ulcerogenic effect was based on earlier observation that ethanol 50% and over provided a reproducible model of gastric damage.

[3] = dose 10 mg/kg by gastric gavage
[4] = dose 50 mg/kg by gastric gavage
[5] = dose 100 mg/kg by gastric gavage

Row | Compound | Acid output compared to the histamine control (in words) [1] | Ulcer index compared to the control (in words) [2] | Ulcer Index, Mean ([2]; dose 1 mg/kg by gastric gavage) | Ulcer Index, Mean [2, 3] | Ulcer Index, Mean [2, 4] | Ulcer Index, Mean [2, 5] | Acid output, mean ([1]; time 0 min, 50 mg/kg oral) | Acid output, mean ([1]; time 30 min, 50 mg/kg oral) | Acid output, mean ([1]; time 45 min, 50 mg/kg oral) | Acid output, mean ([1]; time 60 min, 50 mg/kg oral) | Acid output, mean ([1]; time 75 min, 50 mg/kg oral) | Acid output, mean ([1]; time 90 min, 50 mg/kg oral) | Acid output, mean ([1]; time 105 min, 50 mg/kg oral) | Acid output, mean ([1]; time 120 min, 50 mg/kg oral) | Acid output, mean ([1]; time 135 min, 50 mg/kg oral) | Acid output, mean ([1]; time 150 min, 50 mg/kg oral) | other results
1 | C=CCSSCC=C [Allyl disulfide] | reduced acid output compared to the histamine control | significantly reduced ulcer index compared to the control | 11.67 | 0.00 | 8.33 | 11.00 | – | – | – | – | – | – | – | – | – | – | Acid output, mean ([1]; time 0 min, 10 mg/kg oral): 2.154 μmol (15 min^−1); Acid output, mean ([1]; time 30 min, 10 mg/kg oral): 3.514 μmol (15 min^−1); Acid output, mean ([1]; time 45 min, 10 mg/kg oral): 2.458 μmol (15 min^−1); Acid output, mean ([1]; time 60 min, 10 mg/kg oral): 2.085 μmol (15 min^−1); Acid output, mean ([1]; time 75 min, 10 mg/kg oral): 2.701 μmol (15 min^−1); Acid output, mean ([1]; time 90 min, 10 mg/kg oral): 2.77 μmol (15 min^−1); Acid output, mean ([1]; time 105 min, 10 mg/kg oral): 2.648 μmol (15 min^−1); Acid output, mean ([1]; time 120 min, 10 mg/kg oral): 1.431 μmol (15 min^−1); Acid output, mean ([1]; time 135 min, 10 mg/kg oral): 1.286 μmol (15 min^−1); Acid output, mean ([1]; time 150 min, 10 mg/kg oral): 1.34 μmol (15 min^−1)
2 | C=CCSCC=C [Allyl sulfide, Diallyl sulfide] | reduced acid output compared to the histamine control | significantly reduced ulcer index compared to the control | 114.83 | 72.33 | 5.50 | 13.00 | 1.926 μmol (15 min^−1) | 3.328 μmol (15 min^−1) | 2.023 μmol (15 min^−1) | 1.742 μmol (15 min^−1) | 1.901 μmol (15 min^−1) | 1.627 μmol (15 min^−1) | 1.761 μmol (15 min^−1) | 1.883 μmol (15 min^−1) | 2.301 μmol (15 min^−1) | 1.525 μmol (15 min^−1) | –
3 | Cc1c(OCC(F)(F)F)ccnc1C[S+]([O-])c1nc2ccccc2[nH]1 (centres unmarked) [Lansoprazole, reference compound] | – | – | – | 13.00 | – | – | – | – | – | – | – | – | – | – | – | – | –
4 | O=c1c(O)c(-c2ccc(O)c(O)c2)oc2cc(O)cc(O)c12 [Quercetin] | reduced acid output compared to the histamine control | significantly reduced ulcer index compared to the control | 34.00 | 34.00 | 21.83 | 31.17 | 1.633 μmol (15 min^−1) | 3.323 μmol (15 min^−1) | 1.299 μmol (15 min^−1) | 5.507 μmol (15 min^−1) | 2.579 μmol (15 min^−1) | 1.84 μmol (15 min^−1) | 1.868 μmol (15 min^−1) | 2.213 μmol (15 min^−1) | 1.927 μmol (15 min^−1) | 1.497 μmol (15 min^−1) | –
5 | CNC(=C[N+](=O)[O-])NCCSCc1ccc(CN(C)C)o1 [Ranitidine, reference compound] | – | – | – | – | – | – | – | – | – | – | – | – | – | – | – | – | Ulcer Index, Mean ([2]; dose 20 mg/kg): 28.50
